Read-outs that look alike come from different tables or passages of the source.
Experiments:
tubulin = assay: Tubulin polymerization assay; assay type: biochemical, bovine
Experimental: Electrophoretically homogeneous bovine brain tubulin was purified as described in E. Hamel, et al. Biochemistry 23:4173 (1984).
The tubulin polymerization assay was performed as described in S. Kuo, et al. J. Med. Chem. 36:1146 (1993); L. Li, et al. J. Med. Chem. 37:1126 (1994); and L. Li J. Med. Chem. 37:3400 (1994). In brief, tubulin at 1.2 mg/ml (12 μM) was preincubated for 15 min at 26° C. in a 0.24-ml volume of 0.8 M monosodium glutamate (pH 6.6 with NaOH in a 2 M stock solution) with varying drug concentrations. The drug stock solutions were in DMSO, and the final solvent concentration was 4 % (v/v). All concentrations are in terms of the final reaction volume (0.25 ml). The reaction mixtures were chilled on ice, and 10 μl of 10 mM GTP was added to each reaction mixture. Samples were transferred to cuvettes held at 0° C. by an electronic temperature controller in Gilford spectrophotometers. Baselines were established at 350 nm, and polymerization initiated by a temperature jump to 26° C. The jump took about 50 sec to complete. After 20 min, turbidity readings were recorded, and the temperature controller was set to 0C. When depolymerization was complete, turbidity readings were again recorded. […] IC50 values were obtained graphically from inhibition of polymerization by different drug concentrations.
Electrophoretically, homogeneous bovine brain tubulin was purified as described in Example 6.
The tubulin polymerization assay was performed as described in Example 6.

[1] = tested on: SK-MEL-5 melanoma cell line; assay: NCI in vitro screen, melanoma SK-MEL-5; assay type: cell-based; conditions: Homo sapiens, read-out: Cytotoxicity log GI50 (converted)
From the text: (§1) Compounds 41-51 and 53-68 were submitted to NCI and assayed in the NCI's in vitro disease-oriented antitumor screen, which involves determination of a test compound's effects on the growth of approximately 60 human tumor cell lines. See, M. R. Boyd, et al. In Cancer: Principles and Practice of Oncology Updates; De Vita, V. T., Hellman, S., Rosenberg, S. A., Eds; J. B. Lippincoft: Philadelphia, pp 1-12 (1989); and A. Monks, et al. J. Natl. Cancer Inst. 83:757 (1991). These lines include leukemia, non-small cell lung, colon, central nervous system (CNS), melanoma, ovarian, renal, prostate, and breast cancers.
(§2) Compounds 29'-51' were submitted to NCI and assayed in the NCI's in vitro disease-oriented antitumor screen, using the techniques described in Example 5. This assay involves determinations of a test agent's effect on growth parameters against a panel of approximately 60 human tumor cell lines, derived largely from solid tumors, including non-small cell lung, colon, central nervous system, renal, ovarian, prostate, and breast cancers, plus a few leukemia cell lines. The cytotoxic effects of each compound are obtained as GI50 or […] values, which represent the molar drug concentrations required to cause half growth inhibition and total growth inhibition, respectively. The results are expressed for each cell line as average log GI50 values in Table 4, as log GI50 values in Table 5, and as log TGI values and average log TGI values in Table 6.

[2] = tested on: U-251 CNS cancer cell line; assay: NCI in vitro screen, CNS cancer U-251; assay type: cell-based; conditions: Homo sapiens, read-out: Cytotoxicity log GI50 (converted)
[3] = tested on: OVCAR-3 ovarian cancer cell line; assay: NCI in vitro screen, ovarian cancer OVCAR-3; assay type: cell-based; conditions: Homo sapiens, read-out: Cytotoxicity log GI50 (converted)
[4] = tested on: SF-295 CNS cancer cell line; assay: NCI in vitro screen, CNS cancer SF-295; assay type: cell-based; conditions: Homo sapiens, read-out: Cytotoxicity log GI50 (converted)
[5] = tested on: NCI's 60 human tumor cell line; assay: NCI 60 human tumor cell line in vitro screen (average / whole panel); assay type: cell-based; conditions: calculated from all cell lines tested, molar concentrations, read-out: average log GI50 (converted)
[6] = tested on: 786-0 renal cancer cell line; assay: NCI in vitro screen, renal cancer 786-0; assay type: cell-based; conditions: Homo sapiens, read-out: Cytotoxicity log GI50 (converted)
From the text: as §1, §2

[7] = tested on: HCT-116 colon cancer cell line; assay: NCI in vitro screen, colon cancer HCT-116; assay type: cell-based; conditions: Homo sapiens; HCT-1.16 (head); HCT-116 (footnote); read-out: Cytotoxicity log GI50 (converted)
[8] = tested on: NCI-H460 non-small cell lung cancer cell line; assay: NCI in vitro screen, non-small cell lung cancer NCI-H460; assay type: cell-based; conditions: Homo sapiens, read-out: Cytotoxicity log GI50 (converted)
[9] = tested on: MDA-N breast cancer cell line; assay: NCI in vitro screen, breast cancer MDA-N; assay type: cell-based; conditions: Homo sapiens, read-out: Cytotoxicity log GI50 (converted)
From the text: as §1, §2

[10] = tested on: MDA-MB-435 breast cancer cell line; assay: NCI in vitro screen, breast cancer MDA-MB-435; assay type: cell-based; conditions: Homo sapiens, read-out: Cytotoxicity log GI50 (converted)
[11] = tested on: PC-3 prostate cancer cell line; assay: NCI in vitro screen, prostate cancer PC-3; assay type: cell-based; conditions: Homo sapiens, read-out: Cytotoxicity log GI50 (converted)
From the text: as §1, §2

[12] = tested on: HL-60(TB) leukemia cell line; assay: cells; assay type: cell-based; conditions: Homo sapiens; HL-60(TB); read-out: Cytotoxicity log GI50 (converted)
[13] = Tables 1 and 4, read-out: ITP HC50 ± SD (Inhibition of Tubulin Polymerization)
[14] = read-out: IC50, inhibition of tubulin polymerization

Structure (SMILES)	IC50 (tubulin; [13])	IC50 (tubulin; [14])	GI50 [1]	GI50 [2]	GI50 [3]	GI50 [4]	GI50 [5]	GI50 [6]	GI50 [7]	GI50 [8]	GI50 [9]	GI50 [10]	GI50 [11]	GI50 [12]
Cc1ccc2c(n1)N=C(c1ccc(F)cc1)CC2=O [Compound 59, 2-(4'-Fluorophenyl)-7-methyl-1,8-naphthyridin-4-one]	> 40 µM	> 40 µM	31.6 µM	37.2 µM	32.4 µM	37.2 µM	32.4 µM	41.7 µM	33.9 µM	33.9 µM	11.7 µM	5.89 µM	20.9 µM	14.1 µM
COc1ccc(C2=Nc3nc(C)ccc3C(=O)C2)cc1 [Compound 54, 2-(4'-Methoxyphenyl)-7-methyl-1,8-naphthyridin-4-one]	> 40 µM	–	47.9 µM	> 100 µM	> 100 µM	89.1 µM	91.2 µM	> 100 µM	> 100 µM	> 100 µM	55 µM	42.7 µM	> 100 µM	> 100 µM
Cc1ccc(C2=Nc3ncc(C)cc3C(=O)C2)cc1 [Compound 68, 2-(4'-Methylphenyl)-6-methyl-1,8-naphthyridin-4-one]	2.4 ± 0.8 µM	–	–	–	–	–	–	–	–	–	–	–	–	–
COc1ccc(C2=Nc3nc(C)cc(C)c3C(=O)C2)cc1 [Compound 55, 2-(4'-Methoxyphenyl)-5,7-dimethyl-1,8-naphthyridin-4-one]	> 40 µM	–	17.8 µM	91.2 µM	32.4 µM	42.7 µM	33.1 µM	58.9 µM	36.3 µM	40.7 µM	33.1 µM	28.8 µM	24 µM	15.8 µM
Cc1cc(C)c2c(n1)N=C(c1ccc(Cl)cc1)CC2=O [Compound 66, 2-(4'-Chlorophenyl)-5,7-dimethyl-1 ,8-naphthyridin-4-one]	32 ± 8 µM	11 to 32 µM	14.1 µM	30.2 µM	18.2 µM	16.2 µM	19.5 µM	21.4 µM	14.8 µM	22.4 µM	3.63 µM	4.07 µM	6.31 µM	25.1 µM
Cc1cc(C)c2c(n1)N=C(c1ccc(F)cc1)CC2=O [Compound 60, 2-(4'-Fluorophenyl)-5,7-dimethyl-1,8-naphthyridin-4-one]	> 40 µM	> 40 µM	26.3 µM	95.5 µM	43.7 µM	50.1 µM	40.7 µM	79.4 µM	50.1 µM	51.3 µM	25.1 µM	18.6 µM	30.2 µM	15.5 µM
O=C1CC(c2ccc(F)cc2)=Nc2ncccc21 [Compound 56, 2-(4'-Fluorophenyl)-1,8-naphthyridin-4-one]	> 40 µM	–	30.2 µM	47.9 µM	45.7 µM	50.1 µM	45.7 µM	44.7 µM	42.7 µM	34.7 µM	14.1 µM	12 µM	45.7 µM	12.9 µM
Cc1cnc2c(c1)C(=O)CC(c1ccc(F)cc1)=N2 [Compound 58, 2-(4'-Fluorophenyl)-6-methyl-1,8-naphthyridin-4-one]	20 ± 2 µM	11 to 32 µM	21.9 µM	25.1 µM	22.4 µM	29.5 µM	26.3 µM	32.4 µM	24 µM	33.9 µM	3.02 µM	2.63 µM	25.7 µM	2.4 µM
O=C1CC(c2ccc(Cl)cc2)=Nc2ncccc21 [Compound 62, 2-(4'-Chlorophenyl)-1,8-naphthyridin-4-one]	22 ± 0.1 µM	11 to 32 µM	28.8 µM	39.8 µM	23.4 µM	40.7 µM	38.9 µM	33.9 µM	32.4 µM	38 µM	8.32 µM	5.89 µM	47.9 µM	16.6 µM
Cc1ccnc2c1C(=O)CC(c1ccc(Cl)cc1)=N2 [Compound 63, 2-(4'-Chlorophenyl)-5-methyl-1,8-naphthyridin-4-one]	4.8 ± 1.4 µM	1.5 to 9.8 µM	3.47 µM	4.57 µM	3.16 µM	5.37 µM	5.13 µM	3.98 µM	3.72 µM	3.72 µM	1.32 µM	0.759 µM	2.88 µM	1.78 µM
Cc1ccc(C2=Nc3nc(C)cc(C)c3C(=O)C2)cc1 [Compound 70, 2-(4'-Methylphenyl)-5,7-dimethyl-1,8-naphthyridin-4-one]	9.8 ± 2 µM	–	–	–	–	–	–	–	–	–	–	–	–	–
Cc1ccnc2c1C(=O)CC(c1ccc(F)cc1)=N2 [Compound 57, 2-(4'-Fluorophenyl)-5-methyl-1,8-naphthyridin-4-one]	18 ± 2 µM	11 to 32 µM	16.2 µM	36.3 µM	56.2 µM	79.4 µM	38 µM	33.9 µM	16.2 µM	32.4 µM	3.55 µM	2.88 µM	51.3 µM	4.79 µM
COc1ccc(C2=Nc3ncc(C)cc3C(=O)C2)cc1 [Compound 53, 2-(4'-Methoxyphenyl)-6-methyl-1,8-naphthyridin-4-one]	7.7 ± 0.7 µM	1.5 to 9.8 µM	3.72 µM	4.17 µM	2.95 µM	5.25 µM	6.17 µM	5.13 µM	4.17 µM	4.07 µM	1.7 µM	1.82 µM	5.37 µM	2.29 µM
COc1ccccc1-c1cc(=O)c2c(C)cc(C)nc2[nH]1 [Compound 43]	–	–	33.9 µM	> 100 µM	64.6 µM	53.7 µM	57.5 µM	> 100 µM	74.1 µM	70.8 µM	33.1 µM	32.4 µM	47.9 µM	30.2 µM
Cc1ccc(C2=Nc3nccc(C)c3C(=O)C2)cc1 [Compound 67, 2-(4'-Methylphenyl)-5-methyl-1,8-naphthyridin-4-one]	2.9 ± 0.7 µM	–	–	–	–	–	–	–	–	–	–	–	–	–
Cc1cc(C)c2c(n1)N=C(c1cccc3ccccc13)CC2=O [Compound 46, 2-(α-Naphthyl)-5,7-dimethyl-1,8-naphthyridin-4-one]	–	–	0.468 µM	0.372 µM	0.347 µM	0.589 µM	1.05 µM	9.55 µM	0.38 µM	0.631 µM	0.234 µM	0.191 µM	0.759 µM	0.245 µM
Cc1ccc(C2=Nc3nc(C)ccc3C(=O)C2)cc1 [Compound 69, 2-(4'-Methylphenyl)-7-methyl-1,8-naphthyridin-4-one]	4.9 ± 0.2 µM	–	–	–	–	–	–	–	–	–	–	–	–	–

— patent publication US6229016A, “Method for treating tumors using 2-aryl-naphthyridin-4-ones” (priority 2000, dated 2001)
